Results from US7579356B2, “Thia-tetraazaacenaphthylene kinase inhibitors” (Janssen Pharmaceutica NV, priority 2005, dated 2009).

What was measured:
Format in all cases: biochemical
c-Src kinase (human) = target: T1, c-Src kinase (human) (Homo sapiens, UniProt P12931); assay: c-Src Kinase Assay; details: test concentration of 2 μM; multiple values are separate assay results
T1 construct: purchased Upstate Biotechnology, Lake Placid, N.Y
Method: A mixture of a 10× kinase buffer (80 mM MOPS at pH 7.0, 2 mM EDTA and 100 mM Magnesium Chloride), ATP (5 μM final from a 10 mM stock), a Cdc2 peptide KVEKIGEGTYGVVYK (100 μM final from a 2.5 mM stock), γ-^33P ATP (10 μCl/μL stock) and water (for a total of 20 μL/well) was added to each well of a Streptavidin Flashplate.
Test compound in 100% DMSO (0.5 μL) was added to the appropriate wells. Diluted c-Src kinase (human) (Accession Number SWISS-PROT P12931) (Upstate Biotechnology, Lake Placid, N.Y.) (diluted in a buffer consisting of 20 mM MOPS at pH 7.0, 1 mM EDTA, β-mercaptoethanol (0.1%), Brij-35 (0.01%), glycerol (5%), and 1 mg/mL bovine serum albumin) (2.5 μL) was added to the wells to initiate the reactions. The reaction plates were incubated at 30° C. for 40 min. The reaction was terminated by the addition of a 3% phosphoric acid solution (5 μL). The reaction product (10 μL) was spotted onto a P30 filtermat and washed for 5 minutes in phosphoric acid (75 mM). The wash sequence was repeated two more times, followed with one final wash in methanol. The plates were then dried, sealed and read on the TopCount scintillation counter after adding 30 μL scintillation fluid.
The c-Src inhibition values were derived using the percent inhibition formula provided in Example 164 and are shown as percent in Table 2 at a test concentration of 2 μM. For those compounds with an IC50, the IC50 value in μM is shown in parentheses. For compounds with multiple test values, each value represents a separate assay result.

EGFR = target: T2, EGFR (Homo sapiens, UniProt P00533); assay: EGFR Kinase Assay; details: for IC50: GST-EGFR, ATP 5 μM; for inhibition at 2 µM: test concentration of 2 μM, compounds without an IC50, read-out: EGFR inhibition in percent
T2 construct: The intracellular portion of EGFR started at nucleotide 2189 (corresponding to amino acid 667) and ended at the termination codon; made in house; host or cells: Sf9 insect cells (baculovirus)
T2 sequence (P00533 669-1210 limits assumed): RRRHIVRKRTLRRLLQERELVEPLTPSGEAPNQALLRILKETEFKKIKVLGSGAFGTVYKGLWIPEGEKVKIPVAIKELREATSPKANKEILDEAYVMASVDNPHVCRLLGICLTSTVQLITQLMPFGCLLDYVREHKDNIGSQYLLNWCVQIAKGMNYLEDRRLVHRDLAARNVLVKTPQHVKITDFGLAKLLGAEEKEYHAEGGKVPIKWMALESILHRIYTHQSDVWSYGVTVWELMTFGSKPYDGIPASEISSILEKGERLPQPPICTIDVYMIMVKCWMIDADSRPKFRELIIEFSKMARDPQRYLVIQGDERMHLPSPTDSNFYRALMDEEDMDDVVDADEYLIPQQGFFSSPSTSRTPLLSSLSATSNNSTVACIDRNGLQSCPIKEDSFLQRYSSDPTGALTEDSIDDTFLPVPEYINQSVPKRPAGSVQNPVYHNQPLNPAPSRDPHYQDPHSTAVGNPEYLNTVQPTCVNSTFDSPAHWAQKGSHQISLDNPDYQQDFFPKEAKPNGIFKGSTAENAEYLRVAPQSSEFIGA
How it was run: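 Potency came from triplicate 16-point half-log titrations starting at 200 uM, with IC50 fitted from % inhibition against log concentration, or % inhibition at 2 μM otherwise. Reaction: Sf9-made GST–EGFR cytoplasmic region (aa 667 onward), biotin-polyGluTyr, 5 μM ATP with 33P tracer, pH 8.0 Tris/Mg/vanadate/DTT, 30 °C for 1 h; captured on streptavidin Flashplates and counted.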

HER-2 = target: T3, HER-2 (Homo sapiens, UniProt P04626); assay: HER-2 Kinase Assay; details: for IC50: value in parentheses; for inhibition at 1 µM: test concentration of 1 μM
T3 construct: His6 with thrombin site (N); purchased Proqinase (Freiburg, Germany)
T3 sequence (P04626 679-1255): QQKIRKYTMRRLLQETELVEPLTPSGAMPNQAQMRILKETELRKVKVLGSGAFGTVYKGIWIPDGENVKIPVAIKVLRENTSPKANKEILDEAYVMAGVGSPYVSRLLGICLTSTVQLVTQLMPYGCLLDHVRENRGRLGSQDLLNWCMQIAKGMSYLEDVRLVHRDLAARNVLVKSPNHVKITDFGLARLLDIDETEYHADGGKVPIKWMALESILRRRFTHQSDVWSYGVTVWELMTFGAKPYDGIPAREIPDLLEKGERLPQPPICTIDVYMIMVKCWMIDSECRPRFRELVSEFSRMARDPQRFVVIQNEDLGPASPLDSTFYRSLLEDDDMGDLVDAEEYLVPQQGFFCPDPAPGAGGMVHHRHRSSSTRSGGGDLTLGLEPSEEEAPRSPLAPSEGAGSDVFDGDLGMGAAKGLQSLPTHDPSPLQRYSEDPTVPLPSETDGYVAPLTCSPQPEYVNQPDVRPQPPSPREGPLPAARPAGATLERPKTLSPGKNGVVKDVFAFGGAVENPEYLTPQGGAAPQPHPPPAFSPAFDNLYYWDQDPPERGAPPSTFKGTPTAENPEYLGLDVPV
How it was run: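 Read-out was scintillation counting of 33P incorporated into biotinylated polyGluTyr captured on streptavidin plates. Reactions ran 1 h at 30 °C with GST-fused HER-2 residues 679–1255, 1 μM ATP, Mn2+ and Mg2+ at pH 7.5; data given as percent inhibition at 1 μM, with IC50 where determined.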

T1 sequence (P12931 whole entry): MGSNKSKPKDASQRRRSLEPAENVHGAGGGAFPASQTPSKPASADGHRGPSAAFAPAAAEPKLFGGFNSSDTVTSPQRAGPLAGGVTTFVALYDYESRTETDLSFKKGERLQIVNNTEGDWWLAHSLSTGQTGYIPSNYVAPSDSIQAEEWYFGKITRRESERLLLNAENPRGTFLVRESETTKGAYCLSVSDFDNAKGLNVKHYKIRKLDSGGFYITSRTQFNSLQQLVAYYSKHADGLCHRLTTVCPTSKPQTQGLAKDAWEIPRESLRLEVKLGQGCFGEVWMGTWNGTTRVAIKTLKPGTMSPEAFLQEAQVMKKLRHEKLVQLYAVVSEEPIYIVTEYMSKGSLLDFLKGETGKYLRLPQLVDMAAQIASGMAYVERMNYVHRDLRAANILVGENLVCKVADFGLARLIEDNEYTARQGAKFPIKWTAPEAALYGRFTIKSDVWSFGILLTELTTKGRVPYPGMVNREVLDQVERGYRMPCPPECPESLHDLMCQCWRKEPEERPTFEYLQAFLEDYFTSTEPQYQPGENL

Row | SMILES | inhibition at 2 µM (c-Src kinase (human)) | IC50 (EGFR) | IC50 (HER-2) | inhibition at 2 µM (EGFR) | inhibition at 1 µM (HER-2)
1 | CN1CCN(Cc2ccc(NC(=O)c3sc4ncnc5c4c3NC(=O)N5c3ccc(Br)cc3F)cc2)CC1 [Cpd 70, 5-(4-bromo-2-fluoro-phenyl)-4-oxo-4,5-dihydro-3H-1-thia-3,5,6,8-tetraaza-acenaphthylene-2-carboxylic acid [4-(4-methyl-piperazin-1-ylmethyl)-phenyl]-amide] | 43% | 0.33 µM | 1.02 µM | – | –
2 | O=C(Nc1ccc(NCCCN2CCOCC2)nc1)c1sc2ncnc3c2c1NC(=O)N3c1ccc(Br)cc1F [Cpd 71, 5-(4-bromo-2-fluoro-phenyl)-4-oxo-4,5-dihydro-3H-1-thia-3,5,6,8-tetraaza-acenaphthylene-2-carboxylic acid [6-(3-morpholin-4-yl-propylamino)-pyridin-3-yl]-amide] | 44% | 0.85 µM | 1.76 µM | – | –
3 | COc1ccc(NC(=O)c2sc3ncnc4c3c2NC(=O)N4c2cc(Cl)ccc2OC)cc1OC [Cpd 73, 5-(5-chloro-2-methoxy-phenyl)-4-oxo-4,5-dihydro-3H-1-thia-3,5,6,8-tetraaza-acenaphthylene-2-carboxylic acid (3,4-dimethoxy-phenyl)-amide] | -17% | – | – | 51% | -14%
4 | Cc1ccc(-n2nc(C(C)(C)C)cc2N2C(=O)Nc3c(C(=O)Nc4ccc(CN5CCOCC5)cc4)sc4ncnc2c34)cc1 [Cpd 76, 5-(5-tert-butyl-2-p-tolyl-2H-pyrazol-3-yl)-4-oxo-4,5-dihydro-3H-1-thia-3,5,6,8-tetraaza-acenaphthylene-2-carboxylic acid (4-morpholin-4-ylmethyl-phenyl)-amide] | 43% | – | – | 7% | -11%
5 | COc1cc(N2C(=O)Nc3c(C(=O)Nc4ccc(OC)c(OC)c4)sc4ncnc2c34)ccc1Br [Cpd 82, 5-(4-bromo-3-methoxy-phenyl)-4-oxo-4,5-dihydro-3H-1-thia-3,5,6,8-tetraaza-acenaphthylene-2-carboxylic acid (3,4-dimethoxy-phenyl)-amide] | 43% | – | > 10 µM | 30% | –
6 | COc1cc(N2C(=O)Nc3c(C(=O)N(C)C)sc4ncnc2c34)ccc1Br [Cpd 83, 5-(4-bromo-3-methoxy-phenyl)-4-oxo-4,5-dihydro-3H-1-thia-3,5,6,8-tetraaza-acenaphthylene-2-carboxylic acid dimethylamide] | 44% | – | > 10 µM | -2% | –
7 | COc1cc(N2C(=O)Nc3c(C(=O)Nc4ccc(CN5CCN(C)CC5)cc4)sc4ncnc2c34)ccc1Br [Cpd 85, 5-(4-bromo-3-methoxy-phenyl)-4-oxo-4,5-dihydro-3H-1-thia-3,5,6,8-tetraaza-acenaphthylene-2-carboxylic acid [4-(4-methyl-piperazin-1-ylmethyl)-phenyl]-amide] | -17% | – | 4.38 µM | 36% | –
8 | COc1ccc(Cl)c(N2C(=O)Nc3c(C(=O)Nc4ccc(OCCN5CCCCC5)c(OC)c4)sc4ncnc2c34)c1 [Cpd 88, 5-(2-chloro-5-methoxy-phenyl)-4-oxo-4,5-dihydro-3H-1-thia-3,5,6,8-tetraaza-acenaphthylene-2-carboxylic acid [3-methoxy-4-(2-piperidin-1-yl-ethoxy)-phenyl]-amide] | 43% | – | – | – | –
9 | COc1ccc(NC(=O)c2sc3ncnc4c3c2NC(=O)N4c2ccc(Oc3ccccc3)cc2)cc1OC [Cpd 99, 4-oxo-5-(4-phenoxy-phenyl)-4,5-dihydro-3H-1-thia-3,5,6,8-tetraaza-acenaphthylene-2-carboxylic acid (3,4-dimethoxy-phenyl)-amide] | -9% | 0.027 µM | 0.915 µM | – | 60%
10 | O=C(Nc1ccc(CCN2CCCCC2)cc1)c1sc2ncnc3c2c1NC(=O)N3c1cccc2ccoc12 [Cpd 251, 5-benzofuran-7-yl-4-oxo-4,5-dihydro-3H-1-thia-3,5,6,8-tetraaza-acenaphthylene-2-carboxylic acid [4-(2-piperidin-1-yl-ethyl)-phenyl]-amide] | – | 0.141 µM | 0.285 µM | – | –
11 | CN1CCN(Cc2ccc(NC(=O)c3sc4ncnc5c4c3NC(=O)N5c3ccc(OCc4cccc(F)c4)c(Cl)c3)cc2)CC1 [Cpd 252, 5-[3-chloro-4-(3-fluoro-benzyloxy)-phenyl]-4-oxo-4,5-dihydro-3H-1-thia-3,5,6,8-tetraaza-acenaphthylene-2-carboxylic acid [4-(4-methyl-piperazin-1-ylmethyl)-phenyl]-amide] | – | 0.161 µM | 0.61 µM | – | –
12 | CC1COCC(C)N1Cc1ccc(NC(=O)c2sc3ncnc4c3c2NC(=O)N4c2ccc(Oc3ccccc3)cc2)cc1 (stereo not drawn) [Cpd 253, 4-oxo-5-(4-phenoxy-phenyl)-4,5-dihydro-3H-1-thia-3,5,6,8-tetraaza-acenaphthylene-2-carboxylic acid [4-(3,5-dimethyl-morpholin-4-ylmethyl)-phenyl]-amide] | – | 0.12 µM | 0.344 µM | – | –
13 | O=C(Nc1ccc(CN2CCC(CO)CC2)cc1)c1sc2ncnc3c2c1NC(=O)N3c1ccc(Oc2ccccc2)cc1 [Cpd 254, 4-oxo-5-(4-phenoxy-phenyl)-4,5-dihydro-3H-1-thia-3,5,6,8-tetraaza-acenaphthylene-2-carboxylic acid [4-(4-hydroxymethyl-piperidin-1-ylmethyl)-phenyl]-amide] | – | 0.026 µM | 0.068 µM | – | –
14 | CC1CCN(Cc2ccc(NC(=O)c3sc4ncnc5c4c3NC(=O)N5c3ccc(Oc4ccccc4)cc3)cc2)CC1 [Cpd 255, 4-oxo-5-(4-phenoxy-phenyl)-4,5-dihydro-3H-1-thia-3,5,6,8-tetraaza-acenaphthylene-2-carboxylic acid [4-(4-methyl-piperidin-1-ylmethyl)-phenyl]-amide] | – | 0.041 µM | 0.024 µM | – | –
15 | O=C(Nc1ccc(CN2CCCC(CO)C2)cc1)c1sc2ncnc3c2c1NC(=O)N3c1ccc(Oc2ccccc2)cc1 (stereo not drawn) [Cpd 256, 4-oxo-5-(4-phenoxy-phenyl)-4,5-dihydro-3H-1-thia-3,5,6,8-tetraaza-acenaphthylene-2-carboxylic acid [4-(3-hydroxymethyl-piperidin-1-ylmethyl)-phenyl]-amide] | – | 0.321 µM | 0.45 µM | – | –
16 | CC(C)(C)OC(=O)NC1CCN(Cc2ccc(NC(=O)c3sc4ncnc5c4c3NC(=O)N5c3ccc(Oc4ccccc4)cc3)cc2)CC1 [Cpd 258, [1-(4-{[4-oxo-5-(4-phenoxy-phenyl)-4,5-dihydro-3H-1-thia-3,5,6,8-tetraaza-acenaphthylene-2-carbonyl]-amino}-benzyl)-piperidin-4-yl]-carbamic acid tert-butyl ester] | – | 0.053 µM | 0.058 µM | – | –
17 | CN(C)C1CCN(Cc2ccc(NC(=O)c3sc4ncnc5c4c3NC(=O)N5c3ccc(Oc4ccccc4)cc3)cc2)CC1 [Cpd 260, 4-oxo-5-(4-phenoxy-phenyl)-4,5-dihydro-3H-1-thia-3,5,6,8-tetraaza-acenaphthylene-2-carboxylic acid [4-(4-dimethylamino-piperidin-1-ylmethyl)-phenyl]-amide] | – | 0.037 µM | 0.028 µM | – | –
